According to paper doi:10.1101/2025.10.29.685286v1 (biorxiv, 2025):

Target: T1, NmGNAT (Nakamurella multipartita, UniProt C8XEF8)
T1 sequence (C8XEF8 1-164): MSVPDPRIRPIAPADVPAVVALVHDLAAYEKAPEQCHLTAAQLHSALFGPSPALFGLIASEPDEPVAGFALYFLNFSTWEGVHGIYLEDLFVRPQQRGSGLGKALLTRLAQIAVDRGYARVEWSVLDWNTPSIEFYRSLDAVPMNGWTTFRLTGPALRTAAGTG
Test: microscale thermophoresis
Assay type: binding

| Structure (SMILES) | Kd |
| --- | --- |
| CC(=O)SCCNC(=O)CCNC(=O)[C@H](O)C(C)(C)COP(=O)(O)OP(=O)(O)OC[C@H]1O[C@@H](n2cnc3c(N)ncnc32)[C@H](O)[C@@H]1OP(=O)(O)O [acetyl-CoA] | 18.9 ± 3.2 µM |
| NCCCC[C@H](N)C(=O)O [lysine] | 137 ± 4.2 µM |
